Experiment [1] deals with T1, MR (Rattus norvegicus, UniProt P22199).
T1 construct: endogenous in cells; host or cells: dendritic cells differentiated with GM-CSF from bone marrow stem cells of male SD rats
T1 sequence (P22199 1-981): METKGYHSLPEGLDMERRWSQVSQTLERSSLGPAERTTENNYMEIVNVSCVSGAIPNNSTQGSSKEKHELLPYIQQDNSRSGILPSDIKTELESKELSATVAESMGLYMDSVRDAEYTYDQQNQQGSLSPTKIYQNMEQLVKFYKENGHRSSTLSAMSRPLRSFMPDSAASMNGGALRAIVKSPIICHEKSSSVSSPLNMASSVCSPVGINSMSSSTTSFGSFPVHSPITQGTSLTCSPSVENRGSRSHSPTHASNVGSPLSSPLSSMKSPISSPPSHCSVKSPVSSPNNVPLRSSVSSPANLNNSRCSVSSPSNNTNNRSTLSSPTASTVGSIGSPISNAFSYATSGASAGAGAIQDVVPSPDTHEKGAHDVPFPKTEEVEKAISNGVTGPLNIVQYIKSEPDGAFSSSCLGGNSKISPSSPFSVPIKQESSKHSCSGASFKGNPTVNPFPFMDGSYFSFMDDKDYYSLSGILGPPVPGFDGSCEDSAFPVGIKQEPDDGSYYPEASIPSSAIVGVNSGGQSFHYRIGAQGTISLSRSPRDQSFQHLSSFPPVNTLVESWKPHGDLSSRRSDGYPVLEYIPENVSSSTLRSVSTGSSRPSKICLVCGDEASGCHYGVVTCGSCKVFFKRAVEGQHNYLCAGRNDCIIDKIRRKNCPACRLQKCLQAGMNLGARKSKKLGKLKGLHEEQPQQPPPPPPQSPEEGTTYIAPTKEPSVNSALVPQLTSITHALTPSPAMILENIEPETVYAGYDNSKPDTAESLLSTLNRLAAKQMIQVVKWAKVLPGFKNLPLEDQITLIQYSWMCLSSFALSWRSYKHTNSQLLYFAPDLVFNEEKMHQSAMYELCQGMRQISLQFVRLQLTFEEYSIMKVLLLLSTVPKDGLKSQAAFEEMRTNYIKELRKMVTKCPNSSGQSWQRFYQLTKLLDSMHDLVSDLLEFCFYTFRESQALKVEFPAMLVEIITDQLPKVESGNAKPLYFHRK
The experiment in a line: NGAL expression in dendritic cells incubated with aldo +/- spironolactone. Format: cell-based. Conditions: 24 hr. The protocol:
(§1) FIG. 3. NGAL is an aldo/MR target in DCs (A) and macrophages (B). A:DCs were obtained from male SD rat bone marrow stem cells and differentiated during 6 days with GM-CSF. DCs were incubated with aldo (10 nM), spironolactone (5 μM), aldo plus spironolactone, or vehicle for 24 hr. *p<0.05 by ANOVA analysis (n=4); B: peritoneal macrophages from WT mice were stimulated or not with aldo (10 nM+/−RU28318 (MR antagonist). NGAL behaves similarly as MCP1 (monocy chemoattractant protein).
(§2) Macrophages are purified from abdominal cavity from mice, after 4 days of inflammation induced by thioglycollate injection. Dendritic cells are obtained after 7 days of incubation of bone marrow precursors cells (from mice bone marrow) with GM-CSF (granulocyte macrophage colony-stimulating factor).

The target of experiment [2] is T2, MR (Mus musculus, UniProt Q8VII8).
T2 construct: Macrophages are purified from abdominal cavity from mice; endogenous in cells; host or cells: thioglycollate-elicited peritoneal macrophages from WT mice
T2 sequence (Q8VII8 1-978): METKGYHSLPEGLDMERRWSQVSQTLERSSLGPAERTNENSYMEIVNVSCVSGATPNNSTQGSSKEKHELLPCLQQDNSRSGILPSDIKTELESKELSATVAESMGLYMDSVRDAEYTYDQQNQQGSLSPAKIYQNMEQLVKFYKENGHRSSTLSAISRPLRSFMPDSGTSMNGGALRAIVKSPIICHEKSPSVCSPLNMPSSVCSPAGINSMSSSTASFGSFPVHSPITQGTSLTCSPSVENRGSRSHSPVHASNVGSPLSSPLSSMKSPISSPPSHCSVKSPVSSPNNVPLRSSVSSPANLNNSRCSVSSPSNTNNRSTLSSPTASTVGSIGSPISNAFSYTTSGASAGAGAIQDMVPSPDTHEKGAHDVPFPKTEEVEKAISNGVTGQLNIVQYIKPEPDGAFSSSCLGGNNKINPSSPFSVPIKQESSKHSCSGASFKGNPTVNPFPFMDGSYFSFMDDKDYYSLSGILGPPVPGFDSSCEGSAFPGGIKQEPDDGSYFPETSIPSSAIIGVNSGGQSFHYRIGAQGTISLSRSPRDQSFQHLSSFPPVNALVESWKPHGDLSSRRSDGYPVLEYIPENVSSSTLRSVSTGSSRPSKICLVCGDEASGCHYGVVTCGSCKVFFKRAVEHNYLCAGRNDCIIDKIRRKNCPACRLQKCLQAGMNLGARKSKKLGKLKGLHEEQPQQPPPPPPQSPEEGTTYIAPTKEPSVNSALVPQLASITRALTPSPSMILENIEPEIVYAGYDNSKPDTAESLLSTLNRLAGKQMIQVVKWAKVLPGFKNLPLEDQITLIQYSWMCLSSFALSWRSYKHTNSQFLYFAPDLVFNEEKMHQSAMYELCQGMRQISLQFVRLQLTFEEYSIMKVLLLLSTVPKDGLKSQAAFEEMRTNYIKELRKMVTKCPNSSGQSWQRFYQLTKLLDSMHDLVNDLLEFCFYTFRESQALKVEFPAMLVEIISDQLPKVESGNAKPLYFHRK
As to the kind of experiment: NGAL expression in peritoneal macrophages stimulated with aldo. Conditions: aldo 10 nM; peritoneal macrophages from WT mice. The experiment is classed as cell-based. The protocol:
as §1, §2

Take `CC(=O)S[C@@H]1CC2=CC(=O)CC[C@]2(C)[C@H]2CC[C@@]3(C)[C@@H](CC[C@@]34CCC(=O)O4)[C@H]12` [spironolactone]: the “aldo-induced NGAL upregulation in dendritic cells” value at MR [1] (spironolactone 5 μM plus aldo 10 nM) was “blocked”. Regarding `C[C@]12CCC(=O)C=C1CC[C@@H]1[C@@H]2[C@@H](O)C[C@]2(C=O)[C@@H](C(=O)CO)CC[C@@H]12` [aldo, Aldosterone], the “NGAL expression in macrophages” value at MR [2] was “aldo/MR target gene in the macrophages”. In addition, the “NGAL expression in dendritic cells” value at MR [1] (aldo 10 nM) is recorded as “upregulated”.

For the origin of these results see patent publication US9212361B2, “Methods and pharmaceutical compositions for the treatment of hypertension” (INSERM, priority 2013, dated 2015).
